The numbers were not newly measured in US20240366823A1, “INSTANT ACTION AEROSOL FOR AIR SANITIZATION AND DISINFECTION” (Reckitt Benckiser LLC, priority 2021, published 2024), which cites them from elsewhere.

The term vapor pressure denotes the equilibrium pressure above the liquid or solid.

The conditions of data set [1]: at 20° C.
For data set [2] the following is noted: ethanol, water.

`OCCOCCOCCO` [TEG, Triethylene glycol]: the vapor pressure in data set [1] is 0.02 Pa. In data set [2], the solubility result is “soluble in ethanol and miscible with water”.
